Assay results reported in publication PMC9436915, “Tetrahedral framework nucleic acids‐based delivery promotes intracellular transfer of healing peptides and accelerates diabetic would healing” (Cell Proliferation, 2022).
Where a SMILES comes first, the peptide text is derived from it.

Columns and labels:
HUVEC = assay: Tube formation assay on Matrigel; assay type: cell-based; conditions: inhibitor+p@tFNA group; n = 3
Description: (§1) HUVECs under diabetic microenvironment were induced by incubation with 200 μg/ml AGEs (Bioss, Beijing, China) for 24 h. Cells were then treated with peptides or p@FNA (125 nM) for subsequent experiments.
The formation of blood vessel‐like structures in vitro was observed by tube formation assay. Cells were pre‐incubated with AGEs for 24 h and subsequently treated with peptide or p@FNA for another 24 h. Subsequently, 100 μl of HUVEC (1–1.5 × 10^5 cells/ml) were seeded on Matrigel (Corning, NY) in 96‐well plates. Images were taken after 6 h. Statistical analysis of tube formation was performed by Image J.

VEGFA = assay: Western blotting, VEGFA protein; assay type: cell-based; conditions: inhibitor plus p@tFNA treatment, n = 3
Description: as §1
(§2) The expression of β‐actin, VEGFA, MMP‐9, ERK1/2 and p‐ERK1/2 was detected by western blotting. The total protein of the sample was extracted by whole cell lysis method. The target protein was separated by 10% SDS‐PAGE and transferred to PVDF membrane. The bands were blocked in 5% BSA for 1 h and then incubated with primary antibodies against β‐actin (1:5000, PMK058S, BioPM, Wuhan, China), VEGFA (ab214424, Abcam, Cambridge, UK), MMP‐9 (ab76003, Abcam, Cambridge, UK), ERK1/2 (1:1000, CST, #4370, MA) and p‐ERK1/2 (1:2000, CST, #4370, MA) overnight at 4°C. The next day, PVDF membranes were rewarmed and incubated with secondary antibodies for 1 h. Bands were washed three times with TBST. The final exposure was performed in a Bio‐Rad chemiluminometry.

p-ERK1/2 = assay: Western blotting, ERK1/2 phosphorylation; assay type: cell-based; conditions: inhibitor plus p@tFNA treatment, n = 3
Description: as §1, §2

trypsin = assay: Enzyme stability of peptide with trypsin; assay type: in vitro ADME; conditions: 37 °C, during 1.5 h, UV 205 nm
Description: As to the enzyme stability of peptide, equal amount of peptide and p@FNA were treated with trypsin and incubated in 37 °C for 1.5, 3, and 6 h. The remaining amount of peptide was measured by UV spectrophotometer (205 nm). As to enzyme stability of tFNA, equal amount of tFNA and p@FNA were treated with DNase I for 1 min. After neutralization, samples were examined by 6%PAGE at 60 V for 80 min.

Cn1nccc1Nc1nccc(-c2cc3c(s2)C(C)(C)N(CCN2CCOCC2)C3=O)n1 [LY3214996]
Tube formation after ERK1/2 inhibition: branching intervals (HUVEC): 0.49 fold | Tube formation after ERK1/2 inhibition: branching length (HUVEC): 0.25 fold | Tube formation after ERK1/2 inhibition: junctions (HUVEC): 0.19 fold | Tube formation after ERK1/2 inhibition: meshes (HUVEC): 0.13 fold | Tube formation after ERK1/2 inhibition: nodes (HUVEC): 0.20 fold | Tube formation after ERK1/2 inhibition: total length (HUVEC): 0.35 fold | Tube formation after ERK1/2 inhibition: total mesh area (HUVEC): 0.02 fold | VEGFA expression after ERK1/2 inhibitor (VEGFA): 0.59 fold | p-ERK1/2 expression after ERK1/2 inhibitor (p-ERK1/2): 0.69 fold

C[C@@H](O)[C@H](NC(=O)[C@H](CCCNC(=N)N)NC(=O)CNC(=O)[C@H](CCC(=O)O)NC(=O)[C@@H](N)CCCNC(=N)N)C(=O)O [peptide] (H-REGRT-OH)
Stability to trypsin (in words) (trypsin): rapid decomposition
